Consider 31 compounds from US8609690B2, “Aryl- and heteroarylcarbonyl derivatives of substituted nortropanes, medicaments containing such compounds and their use” (Boehringer Ingelheim International GmbH, priority 2008, dated 2013).

In the test the target is T1, 11β-HSD 1 (Homo sapiens, UniProt P28845).
T1 construct: detecting cortisol generated from cortisterone by human liver microsomes; from tissue; host or cells: human liver microsomes
T1 sequence (P28845 whole entry): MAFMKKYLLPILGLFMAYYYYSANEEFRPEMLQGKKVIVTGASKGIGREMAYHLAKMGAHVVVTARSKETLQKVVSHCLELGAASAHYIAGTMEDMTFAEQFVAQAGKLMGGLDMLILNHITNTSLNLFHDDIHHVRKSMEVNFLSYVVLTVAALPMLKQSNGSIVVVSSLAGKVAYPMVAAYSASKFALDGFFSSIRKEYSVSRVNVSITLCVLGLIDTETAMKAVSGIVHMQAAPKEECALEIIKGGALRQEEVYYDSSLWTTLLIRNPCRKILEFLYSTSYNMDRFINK
Briefly: In vitro inhibition of 11β-HSD 1, HTRF detection of cortisol generated by human liver microsomes. Type of test: biochemical. Particulars: 1 μM test compound, 100% indicates no inhibition, zero or below zero indicates complete inhibition (relative to carbenoxolone). The gist of the method:
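Human liver microsomes with test compound were incubated 1 h at 37 °C in Tris buffer, pH 6.0, with 200 μM NADPH and 80 nM cortisone. Cortisol formed was detected by competitive HTRF immunoassay (665/615 nm ratio) and calibrated against a cortisol standard curve. Values are activities at 1 μM compound relative to carbenoxolone, where 100% indicates no inhibition.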
On to `NS(=O)(=O)c1ccc(C(=O)N2[C@@H]3CC[C@H]2C[C@@H](c2ccc(F)cc2)C3)cc1` [Example 119, endo-4-[3-(4-Fluoro-phenyl)-8-aza-bicyclo[3.2.1]octane-8-carbonyl]-benzenesulfonamide], for which the “Inhibitory activity on 11β-HSD 1, % CTL” value came to 95 % CTL.
In the case of `O=C(c1cc(F)c(O)c(Cl)c1)N1[C@@H]2CC[C@H]1C[C@@H](c1ccc(F)cc1)C2` [Example 179, endo-(3-Chloro-5-fluoro-4-hydroxy-phenyl)-[3-(4-fluoro-phenyl)-8-aza-bicyclo[3.2.1]oct-8-yl]-methanone] it was −11 % CTL; in that of `Cc1ccc([C@H]2C[C@H]3CC[C@@H](C2)N3C(=O)c2ccc3c(c2)OCCO3)cc1` [Example 138, endo-(2,3-Dihydro-benzo[1,4]dioxin-6-yl)-(3-p-tolyl-8-aza-bicyclo[3.2.1]oct-8-yl)-methanone], 4 % CTL; in that of `O=C(c1cc(Cl)c(O)c(Cl)c1)N1[C@@H]2CC[C@H]1C[C@@H](c1ccc(F)cc1)C2` [Example 163, endo-(3,5-Dichloro-4-hydroxy-phenyl)-[3-(4-fluoro-phenyl)-8-aza-bicyclo[3.2.1]oct-8-yl]-methanone], −7 % CTL.
Regarding `Cn1cnc2cc(C(=O)N3[C@@H]4CC[C@H]3C[C@@H](c3ccc(F)cc3)C4)ccc21` [Example 66, endo-[3-(4-Fluoro-phenyl)-8-aza-bicyclo[3.2.1]oct-8-yl]-(1-methyl-1H-benzoimidazol-5-yl)-methanone], the “Inhibitory activity on 11β-HSD 1, % CTL” value worked out at 77 % CTL.
In the case of `CC(=O)c1cccc(C(=O)N2[C@@H]3CC[C@H]2C[C@@H](c2ccc(F)cc2)C3)c1` [Example 124, endo-1-{3-[3-(4-Fluoro-phenyl)-8-aza-bicyclo[3.2.1]octane-8-carbonyl]-phenyl}-ethanone], the “Inhibitory activity on 11β-HSD 1, % CTL” value is 59 % CTL.
On to `O=C(c1cccc(-c2cc[nH]n2)c1)N1[C@@H]2CC[C@H]1C[C@@H](c1ccc(F)cc1)C2` [Example 90, endo-[3-(4-Fluoro-phenyl)-8-aza-bicyclo[3.2.1]oct-8-yl]-[3-(1H-pyrazol-3-yl)-phenyl]-methanone], for which the “Inhibitory activity on 11β-HSD 1, % CTL” value was determined as 42 % CTL.
As for `O=C(c1ccc2nccnc2c1)N1[C@@H]2CC[C@H]1C[C@@H](c1ccc(F)cc1)C2` [Example 70, endo-[3-(4-Fluoro-phenyl)-8-aza-bicyclo[3.2.1]oct-8-yl]-quinoxalin-6-yl-methanone], the “Inhibitory activity on 11β-HSD 1, % CTL” value was found to be 19 % CTL.
For `COc1cc(C(=O)N2[C@@H]3CC[C@H]2C[C@@H](c2ccc(F)cc2)C3)ccc1O` [Example 171, endo-[3-(4-Fluoro-phenyl)-8-aza-bicyclo[3.2.1]oct-8-yl]-(4-hydroxy-3-methoxy-phenyl)-methanone], the “Inhibitory activity on 11β-HSD 1, % CTL” value was −26 % CTL.
As to `O=C(c1ccc2c(c1)OCCO2)N1C2CCC1CC(c1ccccc1F)C2` (stereo not shown) [Example 145, (2,3-Dihydro-benzo[1,4]dioxin-6-yl)-[3-(2-fluoro-phenyl)-8-aza-bicyclo[3.2.1]oct-8-yl]-methanone], the “Inhibitory activity on 11β-HSD 1, % CTL” value is −37 % CTL.
As for `O=C(c1ccccc1F)N1[C@@H]2CC[C@H]1C[C@@H](c1ccc(F)cc1)C2` [Example 57, endo-(2-Fluoro-phenyl)-[3-(4-fluoro-phenyl)-8-aza-bicyclo[3.2.1]oct-8-yl]-methanone], the “Inhibitory activity on 11β-HSD 1, % CTL” value came to 63 % CTL.
Then `O=C(c1ccc2c(c1)OCCO2)N1[C@@H]2CC[C@H]1C[C@@H](c1cccc(O)c1)C2` [Example 141, endo-(2,3-Dihydro-benzo[1,4]dioxin-6-yl)-[3-(3-hydroxy-phenyl)-8-aza-bicyclo[3.2.1]oct-8-yl]-methanone], with 29 % CTL; and `CC(=O)Cc1ccc(C(=O)N2[C@@H]3CC[C@H]2C[C@@H](c2ccc(F)cc2)C3)cc1` [Example 58, endo-1-{4-[3-(4-Fluoro-phenyl)-8-aza-bicyclo[3.2.1]octane-8-carbonyl]-phenyl}-propan-2-one], with 68 % CTL.
Then `COc1ccc(C(=O)N2[C@@H]3CC[C@H]2C[C@@H](c2ccc(F)cc2)C3)cc1C` [Example 170, endo-[3-(4-Fluoro-phenyl)-8-aza-bicyclo[3.2.1]oct-8-yl]-(4-methoxy-3-methyl-phenyl)-methanone], with −34 % CTL; and `O=C(c1ccc2c(c1)OCCO2)N1[C@@H]2CC[C@H]1C[C@@H](c1ccc(Oc3ccccc3)cc1)C2` [Example 152, endo-(2,3-Dihydro-benzo[1 ,4]dioxin-6-yl)-[3-(4-phenoxy-phenyl)-8-aza-bicyclo[3.2.1]oct-8-yl]-methanone], with 5 % CTL; and `CC(C)(C)Oc1cccc(C(=O)N2[C@@H]3CC[C@H]2C[C@@H](c2ccc(F)cc2)C3)c1` [Example 45, endo-(3-tert-Butoxy-phenyl)-[3-(4-fluoro-phenyl)-8-aza-bicyclo[3.2.1]oct-8-yl]-methanone], with 82 % CTL.
With `Cc1cc(C(=O)N2[C@@H]3CC[C@H]2C[C@@H](c2ccc(F)cc2)C3)cc(C)c1O` [Example 164, endo-[3-(4-Fluoro-phenyl)-8-aza-bicyclo[3.2.1]oct-8-yl]-(4-hydroxy-3,5-dimethyl-phenyl)-methanone], the “Inhibitory activity on 11β-HSD 1, % CTL” value is listed as −29 % CTL.
Take `O=C(c1ccc2c(c1)OCCO2)N1[C@@H]2CC[C@H]1C[C@@H](c1ccc(O)cc1)C2` [Example 142, endo-(2,3-Dihydro-benzo[1,4]dioxin-6-yl)-[3-(4-hydroxy-phenyl)-8-aza-bicyclo[3.2.1]oct-8-yl]-methanone]: the “Inhibitory activity on 11β-HSD 1, % CTL” value is given as 31 % CTL.
Regarding `O=C(c1ccc2c(c1)OCCO2)N1C2CCC1CC(c1ccc(Cl)cc1F)C2` (stereo not shown) [Example 144, [3-(4-Chloro-2-fluoro-phenyl)-8-aza-bicyclo[3.2.1]oct-8-yl]-(2,3-dihydro-benzo[1,4]dioxin-6-yl)-methanone], the “Inhibitory activity on 11β-HSD 1, % CTL” value is −59 % CTL.
For `Cn1ccc2cc(C(=O)N3[C@@H]4CC[C@H]3C[C@@H](c3ccc(F)cc3)C4)ccc21` [Example 131, endo-[3-(4-Fluoro-phenyl)-8-aza-bicyclo[3.2.1]oct-8-yl]-(1-methyl-1H-indol-5-yl)-methanone], the “Inhibitory activity on 11β-HSD 1, % CTL” value was −20 % CTL.
For `O=C(c1ccc2c(c1)OCCO2)N1[C@@H]2CC[C@H]1C[C@@H](c1ccccc1O)C2` [Example 159, endo-(2,3-Dihydro-benzo[1,4]dioxin-6-yl)-[3-(2-hydroxy-phenyl)-8-aza-bicyclo[3.2.1]oct-8-yl]-methanone], the “Inhibitory activity on 11β-HSD 1, % CTL” value is on record as −55 % CTL.
Then `O=C(c1cccc(O)c1)N1[C@@H]2CC[C@H]1C[C@@H](c1ccc(F)cc1)C2` [Example 129, endo-[3-(4-Fluoro-phenyl)-8-aza-bicyclo[3.2.1]oct-8-yl]-(3-hydroxy-phenyl)-methanone], with −1 % CTL.
Turning to `COc1ccc([C@@H]2C[C@H]3CC[C@@H](C2)N3C(=O)c2ccc3c(c2)OCCO3)cc1` [Example 135, exo-(2,3-Dihydro-benzo[1,4]dioxin-6-yl)-[3-(4-methoxy-phenyl)-8-aza-bicyclo[3.2.1]oct-8-yl]-methanone], the “Inhibitory activity on 11β-HSD 1, % CTL” value is reported as −35 % CTL.
Take `O=C1Cc2cc(C(=O)N3[C@@H]4CC[C@H]3C[C@@H](c3ccc(F)cc3)C4)ccc2N1` [Example 47, endo-5-[3-(4-Fluoro-phenyl)-8-aza-bicyclo[3.2.1]octane-8-carbonyl]-1,3-dihydro-indol-2-one]: the “Inhibitory activity on 11β-HSD 1, % CTL” value was −17 % CTL.
For `O=C(c1ccc(F)c(F)c1)N1[C@@H]2CC[C@H]1C[C@@H](c1ccc(F)cc1)C2` [Example 77, endo-(3,4-Difluoro-phenyl)-[3-(4-fluoro-phenyl)-8-aza-bicyclo[3.2.1]oct-8-yl]methanone], the “Inhibitory activity on 11β-HSD 1, % CTL” value is listed as 47 % CTL.
`CC(=O)Nc1cccc(C(=O)N2[C@@H]3CC[C@H]2C[C@@H](c2ccc(F)cc2)C3)c1` [Example 64, endo-N-{3-[3-(4-Fluoro-phenyl)-8-aza-bicyclo[3.2.1]octane-8-carbonyl]-phenyl}-acetamide]: the “Inhibitory activity on 11β-HSD 1, % CTL” value amounted to 99 % CTL.
As for `O=C(c1ccc2c(c1)OCCO2)N1C2CCC1CC(c1cccc(-c3ccccc3)c1)C2` (stereo not shown) [Example 150, (3-Biphenyl-3-yl-8-aza-bicyclo[3.2.1]oct-8-yl)-(2,3-dihydro-benzo[1,4]dioxin-6-yl)-methanone], the “Inhibitory activity on 11β-HSD 1, % CTL” value was 62 % CTL.
For the compound `O=C(c1cccc2ncccc12)N1[C@@H]2CC[C@H]1C[C@@H](c1ccc(F)cc1)C2` [Example 37, endo-[3-(4-Fluoro-phenyl)-8-aza-bicyclo[3.2.1]oct-8-yl]-quinolin-5-yl-methanone], the “Inhibitory activity on 11β-HSD 1, % CTL” value is 39 % CTL.
For the compound `CC(=O)c1ccccc1C(=O)N1[C@@H]2CC[C@H]1C[C@@H](c1ccc(F)cc1)C2` [Example 126, endo-1-{2-[3-(4-Fluoro-phenyl)-8-aza-bicyclo[3.2.1]octane-8-carbonyl]-phenyl}-ethanone], the “Inhibitory activity on 11β-HSD 1, % CTL” value is reported as 63 % CTL.
`Cc1nc(-c2cccc(C(=O)N3[C@@H]4CC[C@H]3C[C@@H](c3ccc(F)cc3)C4)c2)no1` [Example 88, endo-[3-(4-Fluoro-phenyl)-8-aza-bicyclo[3.2.1]oct-8-yl]-[3-(5-methyl-[1,2,4]oxadiazol-3-yl)-phenyl]-methanone]: the “Inhibitory activity on 11β-HSD 1, % CTL” value stood at 98 % CTL.
In the case of `COc1ccc(C(=O)N2[C@@H]3CC[C@H]2C[C@@H](c2ccc(F)cc2)C3)cc1Cl` [Example 165, endo-(3-Chloro-4-methoxy-phenyl)-[3-(4-fluoro-phenyl)-8-aza-bicyclo[3.2.1]oct-8-yl]-methanone] it was 2 % CTL.
